Calls of active or inactive are those of the source. The rule behind the calls is not given here.
How the values were obtained:
[1] = Induction of morphological transformation of rat ASK cells into astrocytes after 1 hr by light microscopy; assay type: functional; conditions: read-out: ED50 (the source's name)
ASK = test: Induction of morphological transformation of rat ASK cells into astrocytes at 100 ug/ml after 1 hr by light microscopy; assay type: functional, cell-based
[2] = Induction of morphological transformation of rat ASK cells into astrocytes at 2.5 uM after 1 hr by light microscopy; assay type: functional
[3] = Induction of morphological transformation of rat ASK cells into astrocytes at 0.10 uM after 1 hr by light microscopy; assay type: functional
[4] = Induction of morphological transformation of rat ASK cells into astrocytes at 0.004 uM after 1 hr by light microscopy; assay type: functional
[5] = Induction of morphological transformation of rat ASK cells into astrocytes at 0.02 uM after 1 hr by light microscopy; assay type: functional
[6] = Induction of morphological transformation of rat ASK cells into astrocytes at 0.5 uM after 1 hr by light microscopy; assay type: functional
[7] = Induction of morphological transformation of rat ASK cells into astrocytes at 50 uM after 1 hr by light microscopy in presence of fetal calf serum; assay type: functional
[8] = Induction of morphological transformation of rat ASK cells into astrocytes at 25 uM after 1 hr by light microscopy in absence of fetal calf serum; assay type: functional
[9] = Induction of cAMP production in rat ASK cells assessed per 10^6 cells at 50 uM after 1 hr by radioimmunoassay; assay type: functional
[10] = Induction of morphological transformation of rat ASK cells into astrocytes at 50 uM after 1 hr by light microscopy in presence of colchicine; assay type: functional
[11] = Induction of morphological transformation of rat ASK cells into astrocytes at 100 uM after 1 hr by light microscopy in presence of colchicine; assay type: functional
[12] = Induction of morphological transformation of rat ASK cells into astrocytes at 25 uM after 1 hr by light microscopy in presence of colchicine; assay type: functional
[13] = Induction of morphological transformation of rat ASK cells into astrocytes at 6.2 uM after 1 hr by light microscopy in presence of colchicine; assay type: functional
[14] = Induction of morphological transformation of rat ASK cells into astrocytes at 100 uM after 1 hr by light microscopy in presence of fetal calf serum; assay type: functional
[15] = Induction of morphological transformation of rat ASK cells into astrocytes at 12.5 uM after 1 hr by light microscopy in presence of colchicine; assay type: functional
[16] = Cytotoxicity against rat ASK cells at 150 uM; assay type: cell-based
[17] = Induction of morphological transformation of rat ASK cells into astrocytes at 12.5 uM after 1 hr by light microscopy in absence of fetal calf serum; assay type: functional
[18] = Induction of morphological transformation of rat ASK cells into astrocytes at 6.2 uM after 1 hr by light microscopy in presence of fetal calf serum; assay type: functional
[19] = Induction of morphological transformation of rat ASK cells into astrocytes at 12.5 uM after 1 hr by light microscopy in presence of fetal calf serum; assay type: functional
[20] = Induction of morphological transformation of rat ASK cells into astrocytes at 6.2 uM after 1 hr by light microscopy in absence of fetal calf serum; assay type: functional
[21] = Induction of morphological transformation of rat ASK cells into astrocytes at 25 uM after 1 hr by light microscopy in presence of fetal calf serum; assay type: functional
[22] = Induction of morphological transformation of rat ASK cells into astrocytes at 100 uM after 1 hr by light microscopy in absence of fetal calf serum; assay type: functional
[23] = Induction of morphological transformation of rat ASK cells into astrocytes at 150 uM after 1 hr by light microscopy in presence of fetal calf serum; assay type: functional
[24] = Induction of morphological transformation of rat ASK cells into astrocytes at 50 uM after 1 hr by light microscopy in absence of fetal calf serum; assay type: functional

Row | Structure (SMILES) | EC50 [1] [µM] | Activity (ASK) | also measured
1 | CC1=C(/C=C/C(C)=C/C=C/C(C)=C/C=C/C(=O)O)C(C)(C)CCC1 | > 25 | – | –
2 | COC(C)C1=C(/C=C/C(C)=C/C=C/C(C)=C/C(=O)O)C(C)(C)CC1 (configuration not stated) | < 10 | – | –
3 | CC(/C=C/C12OC1(C)CCCC2(C)C)=C\C=C\C(C)=C\C(=O)O (configuration not stated) | > 25 | – | –
4 | C=C[C@@]1(C)CC(=O)[C@@]23OS(=O)O[C@H]4CCC(C)(C)[C@H]([C@H](O)[C@H](OC(C)=O)[C@@]2(C)O1)[C@]43C (some centres not stated) | 3.12 | – | –
5 | C=C[C@@]1(C)CC(=O)[C@]2(O)[C@@]3(C)[C@@H](O)CCC(C)(C)[C@@H]3[C@H](O)[C@H](O)[C@@]2(C)O1 | 3.86 | – | –
6 | C=C[C@@]1(C)CC(O)[C@]2(O)[C@@]3(C)[C@@H](O)CCC(C)(C)[C@@H]3[C@H](O)[C@H](OC(C)=O)[C@@]2(C)O1 (some centres not stated) | 6.53 | – | –
7 | CC1=C(CC/C(C)=C/C=C/C(C)=C/C(=O)O)C(C)(C)CCC1 | < 10 | – | –
8 | CC(=O)C1=C(/C=C/C(C)=C/C=C/C(C)=C/C(=O)O)C(C)(C)CC1 | > 25 | – | –
9 | CC1=C(/C=C/C(C)C/C=C/C(C)=C/C(=O)O)C(C)(C)CCC1 (configuration not stated) | 10 | – | –
10 | C=C[C@@]1(C)CC(=O)[C@@H]2[C@@]3(C)CCCC(C)(C)[C@@H]3[C@H](O)[C@H](OC(C)=O)[C@@]2(C)O1 | > 100 | – | –
11 | CC(/C=C/C1C(C)CCCC1(C)C)=C\C=C\C(C)=C\C(=O)O (configuration not stated) | < 10 | – | –
12 | CC(C)=CCC[C@](C)(O)[C@H]1CC[C@]2(C)[C@@H]1[C@H](O)C[C@@H]1[C@@]3(C)CC[C@H](O)C(C)(C)[C@@H]3[C@@H](O[C@@H]3O[C@H](CO)[C@@H](O)[C@H](O)[C@H]3O[C@@H]3O[C@@H](C)[C@H](O)[C@@H](O)[C@H]3O)C[C@]12C | – | inactive | –
13 | CC(C)=CCC[C@](C)(O[C@@H]1O[C@H](CO)[C@@H](O)[C@H](O)[C@H]1O)[C@H]1CC[C@]2(C)[C@@H]1[C@H](O)C[C@@H]1[C@@]3(C)CC[C@H](O)C(C)(C)[C@@H]3[C@@H](O[C@@H]3O[C@H](CO)[C@@H](O)[C@H](O)[C@H]3O)C[C@]12C | – | inactive | –
14 | CC(C)=CCC[C@](C)(O[C@@H]1O[C@H](CO)[C@@H](O)[C@H](O)[C@H]1O)[C@H]1CC[C@]2(C)[C@@H]1[C@H](O)C[C@@H]1[C@@]3(C)CC[C@H](O)C(C)(C)[C@@H]3[C@@H](O[C@@H]3O[C@H](CO)[C@@H](O)[C@H](O)[C@H]3O[C@@H]3O[C@@H](C)[C@H](O)[C@@H](O)[C@H]3O)C[C@]12C | – | inactive | –
15 | CC(C)=CCC[C@](C)(O[C@@H]1O[C@H](CO)[C@@H](O)[C@H](O)[C@H]1O)[C@H]1CC[C@]2(C)[C@@H]1[C@H](O)C[C@@H]1[C@@]3(C)CC[C@H](O[C@@H]4O[C@H](CO)[C@@H](O)[C@H](O)[C@H]4O[C@@H]4O[C@H](CO)[C@@H](O)[C@H](O)[C@H]4O)C(C)(C)[C@@H]3CC[C@]12C | – | inactive | –
16 | CC(C)=CCC[C@](C)(O[C@@H]1O[C@H](CO[C@@H]2OC[C@@H](O)[C@H](O)[C@H]2O)[C@@H](O)[C@H](O)[C@H]1O)[C@H]1CC[C@]2(C)[C@@H]1[C@H](O)C[C@@H]1[C@@]3(C)CC[C@H](O[C@@H]4O[C@H](CO)[C@@H](O)[C@H](O)[C@H]4O[C@@H]4O[C@H](CO)[C@@H](O)[C@H](O)[C@H]4O)C(C)(C)[C@@H]3CC[C@]12C | – | inactive | –
17 | CC(C)=CCC[C@](C)(O[C@@H]1O[C@H](CO[C@@H]2OC[C@H](O)[C@H](O)[C@H]2O)[C@@H](O)[C@H](O)[C@H]1O)[C@H]1CC[C@]2(C)[C@@H]1[C@H](O)C[C@@H]1[C@@]3(C)CC[C@H](O[C@@H]4O[C@H](CO)[C@@H](O)[C@H](O)[C@H]4O[C@@H]4O[C@H](CO)[C@@H](O)[C@H](O)[C@H]4O)C(C)(C)[C@@H]3CC[C@]12C | – | inactive | –
18 | CC(C)=CCC[C@](C)(O[C@@H]1O[C@H](CO[C@@H]2O[C@@H](CO)[C@H](O)[C@H]2O)[C@@H](O)[C@H](O)[C@H]1O)[C@H]1CC[C@]2(C)[C@@H]1[C@H](O)C[C@@H]1[C@@]3(C)CC[C@H](O[C@@H]4O[C@H](CO)[C@@H](O)[C@H](O)[C@H]4O[C@@H]4O[C@H](CO)[C@@H](O)[C@H](O)[C@H]4O)C(C)(C)[C@@H]3CC[C@]12C | – | inactive | –
19 | CC(C)=CCC[C@](C)(O[C@@H]1O[C@H](CO[C@@H]2O[C@H](CO)[C@@H](O)[C@H](O)[C@H]2O)[C@@H](O)[C@H](O)[C@H]1O)[C@H]1CC[C@]2(C)[C@@H]1[C@H](O)C[C@@H]1[C@@]3(C)CC[C@H](O[C@@H]4O[C@H](CO)[C@@H](O)[C@H](O)[C@H]4O[C@@H]4O[C@H](CO)[C@@H](O)[C@H](O)[C@H]4O)C(C)(C)[C@@H]3CC[C@]12C | – | inactive | –
20 | CC1(C)CC[C@]2(C(=O)O[C@@H]3O[C@H](CO)[C@@H](O)[C@H](O)[C@H]3O)CC[C@]3(C)C(=CC[C@@H]4[C@@]5(C)CC[C@H](O[C@@H]6O[C@H](C(=O)O)[C@@H](O)[C@H](O)[C@H]6O[C@@H]6O[C@H](CO)[C@@H](O)[C@H](O)[C@H]6O)C(C)(C)[C@@H]5CC[C@]43C)[C@@H]2C1 | – | inactive | –
21 | C=C[C@@]1(C)CC(=O)[C@]2(O)[C@@]3(C)[C@@H](O)CCC(C)(C)[C@@H]3[C@H](O)[C@H](OC(C)=O)[C@@]2(C)O1 [COLFORSIN] | 0.07 | – | Activity [2]: 100%; Activity [3]: 50%; Activity [4]: 0%; Activity [5]: 15%; Activity [6]: 100%
22 | CCOC(=O)/C=C(C)/C=C/C=C(C)/C=C/c1c(C)cc(OC)c(C)c1C [ETRETINATE] | > 25 | – | –
23 | CC(=O)OC/C=C(C)/C=C/C=C(C)/C=C/C1=C(C)CCCC1(C)C [GILRETINOL ACETATE] | 10 | – | –
24 | CC1=C(/C=C/C(C)=C/C=C/C(C)=C\C(=O)O)C(C)(C)CCC1 [ISOTRETINOIN] | < 10 | – | –
25 | CCNC(=O)/C=C(C)/C=C/C=C(C)/C=C/c1c(C)cc(OC)c(C)c1C [MOTRETINIDE] | > 25 | – | –
26 | CC1=C(/C=C/C(C)=C/C=C/C(C)=C/C=O)C(C)(C)CCC1 [RETINAL] | < 10 | – | –
27 | COC(=O)/C=C(C)/C=C/C=C(C)/C=C/C1=C(C)CCCC1(C)C [RETINOIC ACID METHYL ESTER] | > 25 | – | –
28 | CC1=C(/C=C/C(C)=C/C=C/C(C)=C/CO)C(C)(C)CCC1 [RETINOL] | > 25 | – | –
29 | CC1=C(/C=C/C(C)=C/C=C/C(C)=C/C(=O)O)C(C)(C)CCC1 [TRETINOIN] | 10 | – | Activity [7]: 30%; Activity [8]: 80%; Activity [9]: 20 pmol; Activity [10]: 30%; Activity [11]: 50%; Activity [12]: 15%; Activity [13]: 0%; Activity [14]: 40%; Activity [15]: 0%; Activity [16]: Toxic; Activity [17]: 70%; Activity [18]: 0%; Activity [19]: 10%; Activity [20]: 50%; Activity [21]: 20%; Activity [22]: 100%; Activity [23]: 65%; Activity [24]: 95%

Source: ChEMBL document CHEMBL1151112, “A rapid and sensitive bioassay involving cultured rat glioma cells to screen for substances capable of elevating intracellular cyclic AMP concentration” (J Nat Prod, 1988)
